Measurements from patent publication EP1066315B1 (University of Dundee, priority 1998, dated 2008).
Residues, ends and D or L forms follow the SMILES beside them. *: point of attachment. Fmoc = O=C(OCC1c2ccccc2-c2ccccc21)*

What was measured:
cathepsin L/B = assay: Hydrolysis of cathepsin L/B substrate Z-Phe-Arg-NHMec by B cell lysosomal fractions; format: biochemical, human; conditions: Fig 3b
Experimental: The invention will now be described by reference to the following Examples and Figures wherein • Figure 1: Processing of TTCF by a leupeptin-insensitive cysteine endopeptidase activity. (a) TTCF was digested in vitro in the presence of disrupted lysosomes (1-2 µg) in the presence or absence of iodoacetamide (1 mM), leupeptin, E64 or pepstatin (each at 0.1 mg/ml). Digestions were in 0.1 M NH4 acetate at pH 4.5 or Na2HPO4, pH 6.0 or 7.0. After 4 hours at 37°C, the reactions were separated by Tris-tricine SDS-PAGE and stained with Coomassie Blue. (b) Cleavage sites: TTCF digestion products were separated by SDS PAGE and electrophoretically transferred to nitrocellulose membrane. Individual fragments numbered 1-6 were subjected to 5 cycles of Edman degradation. N-terminal sequence obtained is shown in bold following upstream residues from TTCF (tetanus toxin numbering). […] (c) Each fraction was analysed by SDS-PAGE and Western blotting. […] Release of 7-amino-4-methyl coumarin was measured after 10, 20 or 30 minutes. […] At different times the cells were washed, fixed in 0.05 % glutaraldehyde and antigen presentation measured using proliferation of different autologous TTCF-specific T cell clones. c, AEP pre-processing of TTCF speeds antigen presentation. […] Presentation was measured after 60 minutes of antigen pulsing using EBV B cells. […]

[1] = test system: peripheral blood mononuclear cells (PBMC) / autologous TTCF specific T cell clones; assay: TTCF antigen presentation by PBMC, read out as proliferation of autologous T cell clones; format: cell-based, human
Experimental: The invention will now be described by reference to the following Examples and Figures wherein • Figure 1: Processing of TTCF by a leupeptin-insensitive cysteine endopeptidase activity. (a) TTCF was digested in vitro in the presence of disrupted lysosomes (1-2 µg) in the presence or absence of iodoacetamide (1 mM), leupeptin, E64 or pepstatin (each at 0.1 mg/ml). Digestions were in 0.1 M NH4 acetate at pH 4.5 or Na2HPO4, pH 6.0 or 7.0. After 4 hours at 37°C, the reactions were separated by Tris-tricine SDS-PAGE and stained with Coomassie Blue. (b) Cleavage sites: TTCF digestion products were separated by SDS PAGE and electrophoretically transferred to nitrocellulose membrane. Individual fragments numbered 1-6 were subjected to 5 cycles of Edman degradation. N-terminal sequence obtained is shown in bold following upstream residues from TTCF (tetanus toxin numbering). The N-terminal sequence of His-tagged TTCF was obtained for fragments 1 and 3. (c) Residues Asn 1184 and Glu 1184 in TTCF were mutated to alanine (see Methods) and digestions performed as before. The mutation abolishes cleavage at the mutated site but not at the first site (doublet at 47 kD). In this experiment cleavage of the third site was minimal. • Figure 2: TTCF is processed by an asparaginyl endopeptidase. (a) Chromatography of the TTCF processing activity on Mono-S resin. Fractions eluted by NaCl gradient were incubated with the substrates Z-Ala-Ala-Asn-NHMec or Z-Phe-Arg-NHMec in the presence or absence of E64 (trans-epoxysuccinyl-L-leucylamido-(4-guanidino)butane). […] (b) Fractions as above were incubated with 10 µg TTCF in the presence or absence of E64 for 4 hours at 37°C prior to SDS-PAGE analysis. (c) Each fraction was analysed by SDS-PAGE and Western blotting. Electrophoretically transferred material was probed with an affinity purified antiserum raised against the peptide KGIGSGKVLKSGPQC from human legumain^1. • Figure 3: Peptide inhibitors of AEP block asparaginyl endopeptidase activity and TTCF processing in vitro and in vivo. (a) TTCF was digested with purified AEP (legumain from pig kidney) in the presence or absence of 0.2 mg/ml of the peptides indicated. […] (b) Purified AEP or a crude lysosomal protease mixture were incubated with Z-Ala-Ala-Asn-NHMec, Z-Phe-Arg-NHMec (cathepsins L&B) or Z-Val-Val-Ala NHMec (cathepsin S) in the presence of increasing concentrations of AENK or AEQK. Release of 7-amino-4-methyl coumarin was measured after 10, 20 or 30 minutes. […] At different times the cells were washed, fixed in 0.05 % glutaraldehyde and co-cultured with autologous TTCF specific T cell clones. […] Proteins obtained from commercial sources, as described in the literature or custom peptides were digested with purified pig kidney legumain at pH 5.5 in the presence of 1 mM DTT. […] When present peptide was maintained during antigen pulsing at 1 mg/ml (a) or 2 mg/ml (b). At different times the cells were washed, fixed in 0.05 % glutaraldehyde and antigen presentation measured using proliferation of different autologous TTCF-specific T cell clones. c, AEP pre-processing of TTCF speeds antigen presentation. […] Presentation was measured after 60 minutes of antigen pulsing using EBV B cells.
If AEP plays a role in TTCF processing in antigen presenting cells then sufficiently high levels of the competing AENK peptide might be expected to interfere with normal class II MHC loading of TTCF epitopes. Following a 15 minute preincubation with or without tetrapeptides, freshly isolated peripheral blood mononuclear cells (PBMC) were incubated with TTCF antigen in the continued presence or absence of the peptides. At different times, the cells were washed, fixed and then co-cultured with different autologous T cell clones to assess expression of different peptide/MHC complexes. […] At later times there was some recovery of presentation of these epitopes as expected for a competitive inhibitor. […]

[2] = test system: purified AEP (legumain from pig kidney); assay: Digestion of TTCF with purified AEP in the presence of tetrapeptides; format: biochemical; conditions: 0.2 mg/ml peptide; Fig 3a
Experimental: The invention will now be described by reference to the following Examples and Figures wherein • Figure 1: Processing of TTCF by a leupeptin-insensitive cysteine endopeptidase activity. (a) TTCF was digested in vitro in the presence of disrupted lysosomes (1-2 µg) in the presence or absence of iodoacetamide (1 mM), leupeptin, E64 or pepstatin (each at 0.1 mg/ml). Digestions were in 0.1 M NH4 acetate at pH 4.5 or Na2HPO4, pH 6.0 or 7.0. After 4 hours at 37°C, the reactions were separated by Tris-tricine SDS-PAGE and stained with Coomassie Blue. (b) Cleavage sites: TTCF digestion products were separated by SDS PAGE and electrophoretically transferred to nitrocellulose membrane. Individual fragments numbered 1-6 were subjected to 5 cycles of Edman degradation. N-terminal sequence obtained is shown in bold following upstream residues from TTCF (tetanus toxin numbering). The N-terminal sequence of His-tagged TTCF was obtained for fragments 1 and 3. (c) Residues Asn 1184 and Glu 1184 in TTCF were mutated to alanine (see Methods) and digestions performed as before. The mutation abolishes cleavage at the mutated site but not at the first site (doublet at 47 kD). In this experiment cleavage of the third site was minimal. • Figure 2: TTCF is processed by an asparaginyl endopeptidase. (a) Chromatography of the TTCF processing activity on Mono-S resin. Fractions eluted by NaCl gradient were incubated with the substrates Z-Ala-Ala-Asn-NHMec or Z-Phe-Arg-NHMec in the presence or absence of E64 (trans-epoxysuccinyl-L-leucylamido-(4-guanidino)butane). […] (b) Fractions as above were incubated with 10 µg TTCF in the presence or absence of E64 for 4 hours at 37°C prior to SDS-PAGE analysis. (c) Each fraction was analysed by SDS-PAGE and Western blotting. Electrophoretically transferred material was probed with an affinity purified antiserum raised against the peptide KGIGSGKVLKSGPQC from human legumain^1. • Figure 3: Peptide inhibitors of AEP block asparaginyl endopeptidase activity and TTCF processing in vitro and in vivo. […] Release of 7-amino-4-methyl coumarin was measured after 10, 20 or 30 minutes. […] At different times the cells were washed, fixed in 0.05 % glutaraldehyde and antigen presentation measured using proliferation of different autologous TTCF-specific T cell clones. c, AEP pre-processing of TTCF speeds antigen presentation. […] Presentation was measured after 60 minutes of antigen pulsing using EBV B cells.
We decided to test the possibility that high concentrations of asparagine containing peptides might act as competitive inhibitors. […] To establish that inhibition of AEP was specific, we measured the hydrolysis of different synthetic peptide substrates in the presence and absence of these tetrapeptides.

[3] = PBMC, 1 mg/ml peptide, 30 µg/ml TTCF, after 60 minutes of antigen pulsing

C[C@H](NC(=O)OCC1c2ccccc2-c2ccccc21)C(=O)N[C@@H](CCC(=O)O)C(=O)N[C@@H](CC(N)=O)C(=O)N[C@@H](CCCCN)C(N)=O [AENK, Ala-Glu-Asn-Lys-NH] (Fmoc-AENK-NH2)
hydrolysis of the cathepsin L/B substrate, Z-Phe-Arg-NHMec (cathepsin L/B): had no effect | presentation to T cell clone AK 6 [1, 3]: profoundly inhibited | presentation to T cell clones AK 20 and AK 90 [1, 3]: undetectable | presentation to other clones recognising other regions of TTCF (eg AK 111, 71 and 33) ([1]; PBMC, 1 mg/ml peptide, 30 µg/ml TTCF, Fig 3c): not affected | presentation to most clones (eg AK 5, 90 & 6) at early times ([1]; PBMC, 1 mg/ml peptide, between 30 and 60 minutes of antigen pulsing, Fig 9a): undetactable | inhibitory effect on presentation when TTCF pre-digested in vitro by AEP is used ([1]; TTCF pre-digested in vitro by AEP, data not shown): could be overridden | inhibition of processing of TTCF by AEP [2]: substantially inhibited
